The target of this assay is T1, recombinant human POP (Homo sapiens, UniProt P48147).
T1 construct: purchased USBiological, MA
T1 sequence (P48147 1-710): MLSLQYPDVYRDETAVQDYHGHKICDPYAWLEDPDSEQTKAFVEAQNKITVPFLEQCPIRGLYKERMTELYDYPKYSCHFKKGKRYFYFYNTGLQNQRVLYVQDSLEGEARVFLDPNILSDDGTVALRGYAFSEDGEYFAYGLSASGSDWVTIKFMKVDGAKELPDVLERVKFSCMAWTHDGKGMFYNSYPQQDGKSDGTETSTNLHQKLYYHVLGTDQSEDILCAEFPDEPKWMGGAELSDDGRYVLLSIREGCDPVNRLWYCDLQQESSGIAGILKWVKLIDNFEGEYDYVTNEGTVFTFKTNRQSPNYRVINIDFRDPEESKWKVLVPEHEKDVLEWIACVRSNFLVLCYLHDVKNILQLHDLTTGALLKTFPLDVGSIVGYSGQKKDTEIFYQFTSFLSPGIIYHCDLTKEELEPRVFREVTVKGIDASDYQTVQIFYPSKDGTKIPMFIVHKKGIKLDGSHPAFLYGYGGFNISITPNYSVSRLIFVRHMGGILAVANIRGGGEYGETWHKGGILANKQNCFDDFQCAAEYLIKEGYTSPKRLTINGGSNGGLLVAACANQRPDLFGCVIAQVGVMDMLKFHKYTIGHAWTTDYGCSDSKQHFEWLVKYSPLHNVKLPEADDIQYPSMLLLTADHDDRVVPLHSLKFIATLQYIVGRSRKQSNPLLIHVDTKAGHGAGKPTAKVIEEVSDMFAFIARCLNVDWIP
Nature of the assay: POP enzyme inhibition colorimetric assay (recombinant human POP). The class given is biochemical. Conditions: 0.04 mg/ml; read-out: inhibition against human POP. The procedure: FIG. 3 illustrates the inhibition activity of FGS03 against Flavobacterium and recombinant human POP. FGS03 is tested at final concentrations of 0.02 mg/ml and 0.04 mg/ml respectively. Positive control is PE Inhibitor II, Calbiochem, USA. Each sample is tested in triplicate. Data represented as mean value with standard deviation, n=3.
The POP inhibitory activity of compound was evaluated using an enzyme inhibition assay. A colorimetric assay was set up using Flavobacterium and recombinant human POP enzymes. The POP enzyme solutions obtained from Flavobacterium (0.5 U mL^−1 giving 0.0416 units per well) and human (USBiological, MA with working concentration 0.006 mg/ml) were added to the 96-well plates containing sample extracts and phosphate buffer (100 mM, pH 7.0). The reaction was initiated with the addition of enzyme substrate, Z-Gly-Pro-4-nitroanilide (2 mM in 40% dioxane) and incubated at 30° C. for 15 minutes. Stopper buffer (2 M acetate buffer, pH 4.0 with 10% Triton-X) was added to stop the enzyme reaction. The released p-nitroanilide was determined colorimetrically with a plate reader at 414 nm. The inhibition activity was calculated using the formula:
[formula] • where blank=control without the inhibitor • OD=change in optical density during the assay.

Among the data in patent publication US20240409572A1, “COMPOUND FOR TREATING NEURODEGENERATIVE DISEASES AND ITS ISOLATION METHOD THEREOF” (SARAWAK BIODIVERSITY COUNCIL, priority 2020, published 2024) are inhibition values, retold here.

Usually inhibition stands for how much of the control response was suppressed.

For the molecule `CCCCCCCCCCCc1cc(O)cc(O[C@H]2O[C@@H](C(=O)O)[C@@H](O)[C@H](O)[C@H]2O)c1C(=O)O` [FGS03, (2R,3S,4S,5R,6R)-6-(2-carboxy-5-hydroxy-3-undecylphenoxy)-3,4,5-trihydroxytetrahydro-2H-pyran-2-carboxylic acid], the inhibition at 40 µg/mL stood at 80%.
